In patent US8097774B2, “Cytochrome P450 genes conferring herbicide resistance” (Syngenta Participations AG, priority 2007, dated 2012):
Read-outs that look alike come from different tables or passages of the source.

What was measured:
[1] = tested on: All plants that were sprayed (negative T0 transformants, vector 17107, event 17108-A); experiment: Mesotrione spray on soybean T0 plants, early symptoms on all sprayed plants; type: in vivo, Soybean (Glycine max); conditions: 52.5 g/ha mesotrione over the top
Experimental: (§1) T0 plants were taken from tissue culture to the greenhouse where they are transplanted into saturated soil (Redi-Earth® Plug and Seedling Mix, Sun Gro Horticulture, Bellevue, Wash.) mixed with 1% granular Marathon® (Olympic Horticultural Products, Co., Mainland, Pa.) at 5-10 g/gal Redi-Earth® Mix in 2″ square pots. The plants were covered with humidity domes and placed in a Conviron chamber (Pembina, N. Dak.) with the following environmental conditions: 24° C. day; 18° C. night; 23 hr photoperiod; 80% relative humidity.
After plants became established in the soil and new growth appeared (˜1-2 weeks), plants were sampled and tested for the presence of desired transgene by Taqman® analysis using probes for P450 (CYP72A1), or promoters (prCMP and prUBq3). All positive plants and several negative plants were transplanted into 4″ square pots containing MetroMix® 380 soil (Sun Gro Horticulture, Bellevue, Wash.). Sierra 17-6-12 slow release fertilizer was incorporated into the soil at the recommended rate. […] After acclimatizing (˜1 week), the plants were ready to be sprayed with the desired herbicides.
The plants from Example 6 were sprayed with mesotrione to determine if they were tolerant to this herbicide. […] After spraying, plants were placed in the greenhouse, under the same conditions as described in Example 3 above, and evaluated frequently for symptoms. […]

[2] = tested on: untransformed explants (wild-type tobacco); experiment: Tobacco explants on MS agar containing mesotrione; type: in vivo; conditions: 0.02 ppm mesotrione in MS agar (+3% sucrose); no recovery following prolonged exposure
Description: (§2) To determine tolerance of P450 transgenic explants (i.e. a leaf plus short segment of stem containing the auxiliary bud), these are placed into MS agar (+3% sucrose) containing various concentrations of mesotrione, from 0.02 to 2 ppm. […] In these particular experiments, only the shoot that develops from the bud is bleached, the leaf on the explanted tissue remains green.

[3] = tested on: P450 transgenic explants (transgene PCR+ve transformed plants); experiment: Tobacco explants on MS agar containing mesotrione; type: in vivo
Description: Plant transformation vectors with the appropriate P450 gene expression cassette are used to transform Agrobacterium tumefaciens LBA4404. Tobacco tissue is subjected to Agrobacterium-mediated transformation using methods well described in the art. Transformed shoots are regenerated from callus resistant to the selection agent (e.g., glufosinate, butafenacil, kanamycin). Shoots are rooted on MS agar containing the selection agent.
as §2
They root normally and are phenotypically indistinguishable from untransformed plants. A sub-set of the transformants is tolerant to concentrations of >0.1 ppm yielding plants looking normal and rooting well in the presence of herbicide. Some of the transformed plants can be initially bleached when subjected to the herbicide at the said higher concentrations, but on prolonged exposure they progressively “green up” and “recover”. […]

[4] = tested on: T0 transformants with vector 17107 (corn CYP72A1 cytochrome P450 gene); experiment: Mesotrione spray on soybean T0 plants, chlorosis rating; type: in vivo, Soybean (Glycine max); conditions: 17107 positive, 52.5 g/ha mesotrione, 22 days after the spray
Description: A binary vector (17107) for dicot (soybean) transformation was constructed, with the Arabidopsis UBQ3 promoter driving the corn CYP72A1 cytochrome P450 gene, followed by NOS terminator (FIG. 3). The gene was codon optimized for soybean expression based upon the predicted amino acid sequence of the maize gene coding region. The amino acid sequence of the protein encoded by the CYP72A1 gene is provided in SEQ ID NO:3, and the nucleotide sequence of the optimized CYP72A1 gene in this binary transformation vector is provided in SEQ ID NO:4. The transformation vector also contains two PAT gene cassettes (one with the 35S promoter and one with the CMP promoter, and both PAT genes are followed by the nos terminator) for glufosinate based selection during the transformation process.
as §1
(§3) After plants became established in the soil and new growth appeared (˜1-2 weeks), plants were sampled and tested for the presence of desired transgene by Taqman® analysis using probes for P450 (CYP72A1), or promoters (prCMP and prUBq3). All positive plants and several negative plants were transplanted into 4″ square pots containing MetroMix® 380 soil (Sun Gro Horticulture, Bellevue, Wash.). Sierra 17-6-12 slow release fertilizer was incorporated into the soil at the recommended rate. The negative plants serve as controls for the spray experiment. The plants were then relocated into a standard greenhouse to acclimatize (˜1 week). The environmental conditions were: 27° C. day; 21° C. night; 12 hr photoperiod (with ambient light); ambient humidity. After acclimatizing (˜1 week), the plants were ready to be sprayed with the desired herbicides.
(§4) The plants from Example 6 were sprayed with mesotrione to determine if they were tolerant to this herbicide. Callisto® (active ingredient mesotrione, Syngenta Crop Protection, Inc., Greensboro, N.C.) was mixed in water and X-77 surfactant (0.25% v/v final concentration). Plants were placed in a DeVries spray chamber (DeVries Manufacturing, Hollandale, Minn.), and the distance from the nozzle to the top of the plants was adjusted to approximately 12 inches. The system was set up so that the boom moved at 2 mph, and delivered 25 gallon fluid per acre. The spray rate was calibrated to spray 52.5 g/ha mesotrione over the top of the plants. Negative T0 transformants (i.e., negative by Taqman® for presence of transgenes), T0 transformants with vector 17107, and one transformant with vector 17108 (event 17108-A), were sprayed in this manner. After spraying, plants were placed in the greenhouse, under the same conditions as described in Example 3 above, and evaluated frequently for symptoms. […] However, over time, leaves greened up on all plants. New growth developed as partially bleached, or chlorotic, and the leaves that initially were bleached also greened up. […] At 22 days after the spray, the plants were rated for symptoms on the leaves that were initially bleached. Visible chlorosis was only seen on the leaves immediately above the leaves that were exposed during the spray (i.e., the leaves that had necrotic spots), and in some events, on leaves in sideshoots. The partial chlorosis was evident as light green patches, and often as light green (almost yellow) edges on the leaves.

[5] = tested on: Negative T0 transformants (negative by Taqman for presence of transgenes); experiment: as above; type: in vivo, Soybean (Glycine max); conditions: 52.5 g/ha mesotrione, 22 days after the spray
Experimental: as §1, §3
as §4, with “Visible chlorosis was only seen on the leaves immediately above the leaves that were exposed during the spray (i.e., the leaves that had necrotic spots), and in some events, on leaves in sideshoots. The partial chlorosis was evident as light green patches, and often as light green (almost yellow) edges on the leaves.” left out

corn plants = experiment: Mesotrione levels in treated corn plants; type: in vivo; conditions: over time; P450 based degradation mechanism
[6] = tested on: transformant with vector 17108 (event 17108-A, nsf P450 gene); experiment: Mesotrione spray on soybean T0 plants, chlorosis rating; type: in vivo, Soybean (Glycine max); conditions: 52.5 g/ha mesotrione
Description: A similar binary vector (17108) was constructed with the corn cytochrome P450 gene ‘nsf’ instead of the CYP72A1 gene (FIG. 4). The nsf gene in this vector was codon optimized for soybean expression (SEQ ID NO:2) based upon the predicted amino acid sequence of the maize gene coding region (SEQ ID NO:1).
as §1, §3
The plants from Example 6 were sprayed with mesotrione to determine if they were tolerant to this herbicide. Callisto® (active ingredient mesotrione, Syngenta Crop Protection, Inc., Greensboro, N.C.) was mixed in water and X-77 surfactant (0.25% v/v final concentration). Plants were placed in a DeVries spray chamber (DeVries Manufacturing, Hollandale, Minn.), and the distance from the nozzle to the top of the plants was adjusted to approximately 12 inches. The system was set up so that the boom moved at 2 mph, and delivered 25 gallon fluid per acre. The spray rate was calibrated to spray 52.5 g/ha mesotrione over the top of the plants. Negative T0 transformants (i.e., negative by Taqman® for presence of transgenes), T0 transformants with vector 17107, and one transformant with vector 17108 (event 17108-A), were sprayed in this manner. After spraying, plants were placed in the greenhouse, under the same conditions as described in Example 3 above, and evaluated frequently for symptoms. […] However, over time, leaves greened up on all plants. […]

[7] = tested on: Transgenic progeny plants (T1 or later generations) containing the nsf transgene (vector 17108); experiment: T1 seed from 17108 events, spray with other HPPD herbicides; conditions: sprayed at 40-80 g/ha rates or higher; evaluated for bleaching and chlorosis
Experimental: T0 transformants containing the nsf transgene (vector 17108) are allowed to set T1 seed, and the seed is harvested. This seed is planted, and the progeny analyzed to identify seedlots that are derived from germline transformed plants. Transgenic progeny plants (T1 or later generations), are analyzed to confirm mesotrione tolerance. […] Plants are evaluated for bleaching, and chlorosis, as described in Example 7.

[8] = tested on: CYP76B1 gene in tobacco (Nicotiana tabacum) and Arabidopsis; conditions: cited from earlier work
corn CYP72A1 enzyme = conditions: U.S. Pat. No. 6,380,465, cited from earlier work
rice CYP81A6 enzyme = conditions: Pan et al. (2007); cited from earlier work
[9] = event 17108-A, 17108 positive, 22 days after the spray
[10] = heterologous expression of CYP76B1, Didierjean et al. (2002)

CS(=O)(=O)c1ccc(C(=O)C2C(=O)CCCC2=O)c([N+](=O)[O-])c1 [mesotrione]
symptoms on leaves exposed at the time of herbicide application [1]: developed necrotic symptoms on small portions of the leaves
bleaching of new growth that emerged from the plants ([1]; leaves greened up over time): completely bleached
bleaching of explants [2]: fully bleached
bleaching at the level which causes symptoms on wild-type tobacco ([3]; a number of the transgene PCR+ve transformed plants): no indication of bleaching
concentration tolerated, plants looking normal and rooting well ([3]; a sub-set of the transformants, mesotrione in MS agar): > 0.1 ppm
Number of leaves with <50% chlorisis ([4]; event 17107-A): 0
Number of leaves with ≧50% chlorosis ([4]; event 17107-A): 2
Number of leaves with <50% chlorisis ([4]; event 17107-B): 2
Number of leaves with ≧50% chlorosis ([4]; event 17107-B): 2
Number of leaves with <50% chlorisis ([4]; event 17107-C): 1
Number of leaves with ≧50% chlorosis ([4]; event 17107-C): 1
Number of leaves with <50% chlorisis ([4]; event 17107-D): 2
Number of leaves with ≧50% chlorosis ([4]; event 17107-D): 3
Number of leaves with <50% chlorisis ([4]; event 17107-E): 1
Number of leaves with ≧50% chlorosis ([4]; event 17107-E): 2
Number of leaves with <50% chlorisis ([4]; event 17107-F): 2
Number of leaves with ≧50% chlorosis ([4]; event 17107-F): 1
Number of leaves with <50% chlorisis ([4]; event 17107-G): 2
Number of leaves with ≧50% chlorosis ([4]; event 17107-G): 1
Number of leaves with <50% chlorisis ([4]; event 17107-H): 4
Number of leaves with ≧50% chlorosis ([4]; event 17107-H): 2
Number of leaves with <50% chlorisis ([4]; event 17107-I): 1
Number of leaves with ≧50% chlorosis ([4]; event 17107-I): 1
Number of leaves with <50% chlorisis ([5]; event 6D032-A #4, Negative): 1
Number of leaves with ≧50% chlorosis ([5]; event 6D032-A #4, Negative): 1
Number of leaves with <50% chlorisis ([5]; event 6D032-A #14, Negative): 0
Number of leaves with ≧50% chlorosis ([5]; event 6D032-A #14, Negative): 2
mesotrione levels in treated corn plants (corn plants): decrease over time
recovery from the mesotrione injury ([6]; event 17108-A only): fully recover
Number of leaves with <50% chlorisis [6, 9]: 0
Number of leaves with ≧50% chlorosis [6, 9]: 0
greening of bleached leaves compared with events with vector 17107 ([6]; event 17108-A, 1 week after spray): turned green faster

Cc1ccc(C(=O)COc2c(C(=O)c3ccc(Cl)c(C)c3Cl)c(C)nn2C)cc1 [Benzofenap]
tolerance when sprayed [7]: display tolerance

CS(=O)(=O)c1cc(Cl)ccc1C(=O)c1cnoc1C1CC1 [Isoxachlortole]
tolerance when sprayed [7]: display tolerance

Cc1ccc(NC(=O)N(C)C)cc1Cl [chlortoluron]
increase in tolerance [8, 10]: 10 fold
ability of the enzyme to degrade the herbicide (corn CYP72A1 enzyme): degrade

CS(=O)(=O)c1ccc(C(=O)C2C(=O)CCCC2=O)c(Cl)c1 [Sulcotrione]
tolerance when sprayed [7]: display tolerance

CC(C)N1C(=O)c2ccccc2NS1(=O)=O [bentazon]
ability of the enzyme to degrade the herbicide (rice CYP81A6 enzyme): able to degrade
ability of the enzyme to degrade the herbicide (corn CYP72A1 enzyme): degrade

Cc1c(C(=O)c2cnn(C)c2O)ccc(S(C)(=O)=O)c1C1=NOCC1 [Topramezone]
tolerance when sprayed [7]: display tolerance

CCOC(=O)CC(SP(=S)(OC)OC)C(=O)OCC (stereo not shown) [malathion]
ability of these plants to degrade the insecticide (corn CYP72A1 enzyme; plants): able to degrade

CC(C)c1ccc(NC(=O)N(C)C)cc1 [isoproturon]
increase in tolerance ([8]; in vivo): 10 fold

CS(=O)(=O)c1ccc(C(=O)C2=C(Sc3ccccc3)C3CCC(C3)C2=O)c(Cl)c1 (stereo not shown) [Benzobicyclon]
tolerance when sprayed [7]: display tolerance

Cc1nn(C)c(O)c1C(=O)c1ccc(C(F)(F)F)cc1S(C)(=O)=O [Pyrasulfatole]
tolerance when sprayed [7]: display tolerance

CON(C)C(=O)Nc1ccc(Cl)c(Cl)c1 [linuron]
level of tolerance [8, 10]: 20 fold

COc1cc(Cl)nc(NC(=O)NS(=O)(=O)c2ccccc2C(=O)O)n1 [chlorimuron]
ability of the enzyme to degrade the herbicide (corn CYP72A1 enzyme): degrade
